Here are results for ten compounds from patent US20240150377A1, “MODULATORS OF CYSTIC FIBROSIS TRANSMEMBRANE CONDUCTANCE REGULATOR” (VERTEX PHARMACEUTICALS INCORPORATED, priority 2020, published 2024).

Read-outs that look alike come from different tables or passages of the source. Bounds are passed on as bounds.

The conditions of data set [1]: amide bond, 13-membered ring, DMF.
The target in data set [2] is T1, CFTR (Homo sapiens, UniProt P13569, DEL508-508).
T1 construct: endogenous in cells; host or cells: primary human bronchial epithelial cells from CF subjects (F508del/MF-HBE), differentiated at air-liquid interface
Kind of data set: HBE2 assay: Ussing chamber assay of CFTR-mediated short-circuit currents. The class given is cell-based. Particulars: F508del/MF-HBE cells, with 44 nM potentiator, 18-24 hours, 20% human serum; for Emax: read-out: HBE2 Max activity (%). In outline:
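F508del/MF-HBE cultured >14 days at air-liquid interface, mounted in Ussing chambers; transepithelial short-circuit current recorded under voltage clamp (Vhold=0 mV) at 37 °C. CFTR-mediated ISC (μA/cm^2) taken as peak forskolin response relative to steady-state current after inhibition; corrector activity assessed this way.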

In data set [3] the target is CFTR (Homo sapiens, UniProt P13569). Put plainly: Membrane potential dye, Enteroid Assay A. Particulars: Table 7. It is filed as cell-based. Summed up:
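Human intestinal enteroids incubated 18-24 h at 37 °C with test compound, then loaded with 20 μM methyl oxonol (with CaCC inhibitors). Chloride transport triggered in chloride-free buffer with 10 μM forskolin, 100 μM IBMX, 300 nM Compound III; fluorescence read 15 min, expressed as % of a triple-combination corrector/potentiator control.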

Data set [4] addresses T1, CFTR. Kind of data set: HBE assay: Ussing chamber assay of CFTR-mediated short-circuit currents. The class given is cell-based. Particulars: for activation at 10 µM: HBE assay, read-out: HBE Activity at 10 μM (%); for EC50 / Emax: Table 11; for EC50: read-out: HBE EC50; for Emax: read-out: HBE Max Activity (%). Summed up: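 CFTR-mediated Isc (μA/cm²) equals the peak response to apical 20 μM forskolin minus the residual after a 20 μM each BPO/GlyH-101/CFTR inhibitor 172 cocktail, recorded in Ussing chambers at Vhold 0 mV, 37 °C, pH 7.4, with 30 μM apical amiloride. Cells were F508del/MF HBE cultures preincubated 18-24 h with corrector (concentration range or 10 μM) plus 1 μM ivacaftor in 20% human serum.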

T1 sequence (P13569 with tags, fused parts or gaps DEL508-508): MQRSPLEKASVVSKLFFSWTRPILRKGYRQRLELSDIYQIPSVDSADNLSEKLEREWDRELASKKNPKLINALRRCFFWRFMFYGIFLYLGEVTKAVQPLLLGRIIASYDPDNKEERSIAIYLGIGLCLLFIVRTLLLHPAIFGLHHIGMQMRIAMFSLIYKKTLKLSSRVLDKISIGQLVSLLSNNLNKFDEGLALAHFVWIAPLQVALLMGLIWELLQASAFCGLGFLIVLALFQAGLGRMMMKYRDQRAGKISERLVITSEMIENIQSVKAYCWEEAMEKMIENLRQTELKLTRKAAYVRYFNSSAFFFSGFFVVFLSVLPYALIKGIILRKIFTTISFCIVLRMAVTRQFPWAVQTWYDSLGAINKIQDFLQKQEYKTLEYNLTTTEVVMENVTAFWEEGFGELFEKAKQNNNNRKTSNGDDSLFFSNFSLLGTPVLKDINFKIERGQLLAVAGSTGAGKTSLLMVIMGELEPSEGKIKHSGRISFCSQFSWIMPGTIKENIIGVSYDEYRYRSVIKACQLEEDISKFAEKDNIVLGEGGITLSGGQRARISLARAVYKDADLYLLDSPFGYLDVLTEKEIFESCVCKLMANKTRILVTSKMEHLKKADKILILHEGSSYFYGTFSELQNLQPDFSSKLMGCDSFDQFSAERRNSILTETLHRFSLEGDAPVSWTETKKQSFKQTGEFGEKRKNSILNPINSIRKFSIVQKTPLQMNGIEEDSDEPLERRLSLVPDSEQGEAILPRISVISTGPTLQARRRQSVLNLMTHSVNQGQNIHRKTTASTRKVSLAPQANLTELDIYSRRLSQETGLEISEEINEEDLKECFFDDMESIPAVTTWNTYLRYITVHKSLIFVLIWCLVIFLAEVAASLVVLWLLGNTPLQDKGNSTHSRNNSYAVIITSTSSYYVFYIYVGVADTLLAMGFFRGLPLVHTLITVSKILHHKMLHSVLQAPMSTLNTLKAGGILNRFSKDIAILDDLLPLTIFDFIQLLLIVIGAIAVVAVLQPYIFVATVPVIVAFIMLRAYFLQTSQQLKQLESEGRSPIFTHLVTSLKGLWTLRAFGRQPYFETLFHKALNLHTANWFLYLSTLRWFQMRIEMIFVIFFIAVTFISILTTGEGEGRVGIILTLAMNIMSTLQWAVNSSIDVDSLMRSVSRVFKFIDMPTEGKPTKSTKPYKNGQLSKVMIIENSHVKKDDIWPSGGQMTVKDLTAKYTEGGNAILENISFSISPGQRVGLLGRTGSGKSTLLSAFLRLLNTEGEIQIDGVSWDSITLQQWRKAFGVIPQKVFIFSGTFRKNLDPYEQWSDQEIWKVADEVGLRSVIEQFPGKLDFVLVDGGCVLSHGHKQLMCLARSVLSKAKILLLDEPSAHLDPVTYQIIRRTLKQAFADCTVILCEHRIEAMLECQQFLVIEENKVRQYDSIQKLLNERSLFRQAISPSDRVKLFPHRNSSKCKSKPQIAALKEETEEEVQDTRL
Chain of CFTR (Homo sapiens, UniProt P13569) (P13569 with tags, fused parts or gaps DEL508-508): as above

Compound `Cc1cccc(C)c1-c1cc2nc(n1)NS(=O)(=O)c1cccc(c1)C(=O)N(Cc1ncc(OC(C)C)cn1)[C@H](CC1(C)CCC1)CO2` [Compound 1317, (11R)-6-(2,6-Dimethylphenyl)-12-[(5-isopropoxypyrimidin-2-yl)methyl]-11-[(1-methylcyclobutyl)methyl]-2,2-dioxo-9-oxa-2λ6-thia-3,5,12,19-tetrazatricyclo[12.3.1.14,8]nonadeca-1(18),4(19),5,7,14,16-hexaen-13-one] displayed a ring closure, yield after HPLC in data set [1] (from Cc1cccc(C)c1-c1cc(OC[C@@H](CC2(C)CCC2)NCc2ncc(OC(C)C)cn2)nc(NS(=O)(=O)c2cccc(C(=O)O)c2)n1, CDMT/NMM, 12.9 mM, 22.0 h) of 64%. In addition, the “HBE2 Activity at 3 μM (%)” value at CFTR [2] is recorded as “+++ (+++ is >60+)”.

For orientation: EC50 means the concentration needed to bring the measured effect to its halfway point. `Cc1cccc(C)c1-c1cc2nc(n1)NS(=O)(=O)c1cccc(c1)C(=O)N(C)CC(c1cccc(C(C)(C)C)c1)O2` (racemic) [Compound 16, 10-(3-tert-butylphenyl)-6-(2,6-dimethylphenyl)-12-methyl-2,2-dioxo-9-oxa-2λ^6-thia-3,5,12,19-tetrazatricyclo[12.3.1.14,8]nonadeca-1(18),4(19),5,7,14,16-hexaen-13-one]: in data set [1] (from CNCC(Oc1cc(-c2c(C)cccc2C)nc(NS(=O)(=O)c2cccc(C(=O)O)c2)n1)c1cccc(C(C)(C)C)c1, HATU/DIEA, 32.6 mM, 25.0 °C, 1.0 h, 2 steps), the ring closure, yield after HPLC turned out to be 51%. For the same compound, the “Ent. A Max Activity” value at CFTR [3] (chloride transport as % of triple combination control (Enteroid Assay A)) is “++ (++ is 30-60%)”. The 50% effective concentration (EC50) at CFTR [3] (human enteroid cells, 18-24 hours, acute 10 μM forskolin and 300 nM ivacaftor, read-out: Ent. A EC50) was under 1 µM.

In turn, `Cc1cccc(C)c1-c1cc2nc(n1)NS(=O)(=O)c1cccc(c1)C(=O)N(Cc1cncc(N(C)C3CCC3)n1)[C@H](CCC(C)(C)C)CO2` [Compound 1319, (11R)-12-[[6-[Cyclobutyl(methyl)amino]pyrazin-2-yl]methyl]-11-(3,3-dimethylbutyl)-6-(2,6-dimethylphenyl)-2,2-dioxo-9-oxa-2λ^6-thia-3,5,12,19-tetrazatricyclo[12.3.1.14,8]nonadeca-1(18),4(19),5,7,14,16-hexaen-13-one] had a ring closure, yield after HPLC in data set [1] (from Cc1cccc(C)c1-c1cc(OC[C@@H](CCC(C)(C)C)NCc2cncc(N(C)C3CCC3)n2)nc(NS(=O)(=O)c2cccc(C(=O)O)c2)n1, CDMT/NMM, 26.4 mM, 13.1 h) of 44%. On CFTR [2], the “HBE2 Activity at 3 μM (%)” value is “+++ (+++ is >60+)”, the EC50 was under 1 µM and the Emax is over 60%.

As for `Cc1cccc(C)c1-c1cc2nc(n1)NS(=O)(=O)c1cccc(c1)C(=O)N(Cc1ncc(N3CC(C)(C)C3)cn1)[C@H](CC1(C)CC1)CO2` [Compound 1307, (11R)-12-[[5-(3,3-Dimethylazetidin-1-yl)pyrimidin-2-yl]methyl]-6-(2,6-dimethylphenyl)-11-[(1-methylcyclopropyl)methyl]-2,2-dioxo-9-oxa-2λ^6-thia-3,5,12,19-tetrazatricyclo[12.3.1.14,8]nonadeca-1(18),4(19),5,7,14,16-hexaen-13-one], the ring closure, yield after HPLC in data set [1] (from Cc1cccc(C)c1-c1cc(OC[C@@H](CC2(C)CC2)NCc2ncc(N3CC(C)(C)C3)cn2)nc(NS(=O)(=O)c2cccc(C(=O)O)c2)n1, CDMT/NMM, 24.2 mM, 3.0 h) came to 65%. The activation at 10 µM at CFTR [4] is over 60%. On CFTR [2], the “HBE2 Activity at 3 μM (%)” value is “+++ (+++ is >60+)”.

For `Cc1cccc(C)c1-c1cc2nc(n1)NS(=O)(=O)c1cccc(c1)C(=O)N(Cc1ncc(OC(C)C)cn1)[C@H](CC1(C)CC1)CO2` [Compound 1306, (11R)-6-(2,6-Dimethylphenyl)-12-[(5-isopropoxypyrimidin-2-yl)methyl]-11-[(1-methylcyclopropyl)methyl]-2,2-dioxo-9-oxa-2λ^6-thia-3,5,12,19-tetrazatricyclo[12.3.1.14,8]nonadeca-1(18),4(19),5,7,14,16-hexaen-13-one], the ring closure, yield after HPLC in data set [1] (from Cc1cccc(C)c1-c1cc(OC[C@@H](CC2(C)CC2)NCc2ncc(OC(C)C)cn2)nc(NS(=O)(=O)c2cccc(C(=O)O)c2)n1, CDMT/NMM, 33.8 mM, 4.0 h) was 53%. In addition, the activation at 10 µM on CFTR [4] was over 60%. Further, on CFTR [2], the “HBE2 Activity at 3 μM (%)” value is recorded as “+++ (+++ is >60+)”, the EC50 is under 1 µM and the Emax was over 60%.

`Cc1cccc(C)c1-c1cc2nc(n1)NS(=O)(=O)c1cccc(c1)C(=O)N(Cc1cccn(C)c1=O)[C@H](CC(C)(C)C)CO2` [Compound 59, (11R)-6-(2,6-Dimethylphenyl)-11-(2,2-dimethylpropyl)-12-[(1-methyl-2-oxo-3-pyridyl)methyl]-2,2-dioxo-9-oxa-2λ^6-thia-3,5,12,19-tetrazatricyclo[12.3.1.14,8]nonadeca-1(18),4(19),5,7,14,16-hexaen-13-one] registered a ring closure, yield after HPLC in data set [1] (from Cc1cccc(C)c1-c1cc(OC[C@@H](CC(C)(C)C)NCc2cccn(C)c2=O)nc(NS(=O)(=O)c2cccc(C(=O)O)c2)n1, HATU/DIEA, 28.1 mM, 25.0 °C, 2.0 h) of 54%. On CFTR [4], the concentration for a half-maximal effect (EC50) is under 1 µM and the Emax is over 60%.

With `COCc1cccc(CN2C(=O)c3cccc(c3)S(=O)(=O)Nc3nc(cc(-c4c(C)cccc4C)n3)OC[C@H]2CC(C)(C)C)n1` [Compound 130, (11R)-6-(2,6-Dimethylphenyl)-11-(2,2-dimethylpropyl)-12-[[6-(methoxymethyl)-2-pyridyl]methyl]-2,2-dioxo-9-oxa-2λ^6-thia-3,5,12,19-tetrazatricyclo[12.3.1.14,8]nonadeca-1(18),4(19),5,7,14,16-hexaen-13-one], the ring closure, yield after HPLC in data set [1] (from COCc1cccc(CN[C@@H](COc2cc(-c3c(C)cccc3C)nc(NS(=O)(=O)c3cccc(C(=O)O)c3)n2)CC(C)(C)C)n1, CDMT/NMM, 3.0 h, 2 steps) was 10%. Besides, at CFTR [4], the concentration for a half-maximal effect (EC50) was under 1 µM and the Emax is over 60%.

Turning to `Cc1cc(C)nc(CN2C(=O)c3cccc(c3)S(=O)(=O)Nc3nc(cc(-c4c(C)cccc4C)n3)OC[C@H]2CC(C)(C)C)c1` [Compound 55, (11R)-6-(2,6-Dimethylphenyl)-11-(2,2-dimethylpropyl)-12-[(4,6-dimethylpyridin-2-yl)methyl]-9-oxa-2λ^6-thia-3,5,12,19-tetraazatricyclo[12.3.1.14,8]nonadeca-1(18),4,6,8(19),14,16-hexaene-2,2,13-trione], the ring closure, yield after HPLC in data set [1] (from 3-[[4-(2,6-dimethylphenyl)-6-[(2R)-2-[(4,6-dimethyl-2-pyridyl)methylamino]-4,4-dimethyl-pentoxy]pyrimidin-2-yl]sulfamoyl]benzoic acid (Dihydrochloride salt), CDMT/NMM, 42.2 mM, 25.0 °C) was 44%. Besides, at CFTR [4], the half-maximal effective concentration (EC50) was under 1 µM and the Emax is over 60%.

`Cc1cccc(C(C)C)c1-c1cc2nc(n1)NS(=O)(=O)c1cccc(c1)C(=O)N(Cc1ncc(N3CCOCC3)cn1)[C@H](CC(C)(C)C)CO2` [Compound 6, (11R)-11-(2,2-Dimethylpropyl)-6-[2-methyl-6-(propan-2-yl)phenyl]-12-{[5-(morpholin-4-yl)pyrimidin-2-yl]methyl}-9-oxa-2λ^6-thia-3,5,12,19-tetraazatricyclo[12.3.1.14,8]nonadeca-1(17),4(19),5,7,14(18),15-hexaene-2,2,13-trione] had a ring closure, yield after HPLC in data set [1] (from Cc1cccc(C(C)C)c1-c1cc(OC[C@@H](CC(C)(C)C)NCc2ncc(N3CCOCC3)cn2)nc(NS(=O)(=O)c2cccc(C(=O)O)c2)n1, CDMT/NMM, 54.0 mM, 25.0 °C, 60.0 h, 2 steps) of 21%. For the same compound, at CFTR [4], the concentration for a half-maximal effect (EC50) is under 1 µM and the Emax was over 60%.

As to `Cc1cccc(C)c1-c1cc2nc(n1)NS(=O)(=O)c1cccc(c1)C(=O)N(Cc1ncc(OC(C)C)cn1)[C@H](CC(C)(C)C)CO2` [Compound 118, (11R)-6-(2,6-Dimethylphenyl)-11-(2,2-dimethylpropyl)-12-{[5-(propan-2-yloxy)pyrimidin-2-yl]methyl}-9-oxa-2λ^6-thia-3,5,12,19-tetraazatricyclo[12.3.1.14,8]nonadeca-1(17),4,6,8(19),14(18),15-hexaene-2,2,13-trione], the ring closure, yield after HPLC in data set [1] (from Cc1cccc(C)c1-c1cc(OC[C@@H](CC(C)(C)C)NCc2ncc(OC(C)C)cn2)nc(NS(=O)(=O)c2cccc(C(=O)O)c2)n1, CDMT/NMM, 14.3 mM, 13.25 h) was found to be 59%. Besides, on CFTR [4], the EC50 was under 1 µM and the Emax is over 60%.
